According to ChEMBL document CHEMBL5463725, “Data for DCP probe BAY-277” (2023):
The source made the active and inactive calls. The rule behind the calls is not given here.

Legend:
[1] = molecular target: T1, Methionine aminopeptidase 2 (Homo sapiens, UniProt P50579); test: METAP2 biochemical assay (human)
[2] = molecular target: Adenosine Transporter (Cavia porcellus) (UniProt H0V4R7+H0UUG1+H0V3Z5); test: Inhibition of Transporter, Adenosine at 10.0 µM in the Eurofins Panlabs Safety Screen; assay type: protein assay; conditions: Compound concentration 10.0 uM
[3] = molecular target: T2, 5-hydroxytryptamine receptor 1A (Homo sapiens) (UniProt P08908); test: Inhibition of Serotonin (5-Hydroxytryptamine) 5-HT1A at 10.0 µM in the Eurofins Panlabs Safety Screen; conditions: Compound concentration 10.0 uM
T2 sequence (whole entry): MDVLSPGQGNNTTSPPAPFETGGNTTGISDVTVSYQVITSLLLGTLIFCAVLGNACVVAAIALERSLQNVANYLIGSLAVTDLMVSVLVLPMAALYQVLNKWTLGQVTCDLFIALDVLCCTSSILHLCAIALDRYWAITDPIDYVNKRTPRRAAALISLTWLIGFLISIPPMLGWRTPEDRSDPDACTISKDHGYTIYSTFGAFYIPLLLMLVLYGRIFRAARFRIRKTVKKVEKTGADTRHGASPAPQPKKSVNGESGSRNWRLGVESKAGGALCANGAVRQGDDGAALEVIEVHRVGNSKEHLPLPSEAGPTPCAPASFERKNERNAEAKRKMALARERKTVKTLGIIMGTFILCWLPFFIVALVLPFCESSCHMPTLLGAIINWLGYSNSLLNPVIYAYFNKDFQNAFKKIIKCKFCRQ

[4] = molecular target: Sigma intracellular receptor 2 (Homo sapiens, UniProt Q5BJF2); conditions: Compound concentration 10.0 uM
[5] = molecular target: Adenosine receptor A2a (Homo sapiens) (UniProt P29274); test: Inhibition of Adenosine A2A at 10.0 µM in the Eurofins Panlabs Safety Screen; conditions: Compound concentration 10.0 uM
[6] = molecular target: T1, Methionine aminopeptidase 2; test: Degradation in HUVEC cells (WB) (Western Blot (WB)); assay type: functional, cell-based
[7] = molecular target: Glutamate receptor 2 (Homo sapiens) (UniProt P42262); test: Inhibition of Glutamate, AMPA at 10.0 µM in the Eurofins Panlabs Safety Screen; conditions: Rattus norvegicus; Compound concentration 10.0 uM
[8] = molecular target: Type-2 angiotensin II receptor (Homo sapiens) (UniProt P50052); test: Inhibition of Angiotensin AT2 at 10.0 µM in the Eurofins Panlabs Safety Screen; conditions: Compound concentration 10.0 uM
[9] = molecular target: Sodium-dependent noradrenaline transporter (Homo sapiens) (UniProt P23975); test: Inhibition of Transporter, Norepinephrine (NET) at 10.0 µM in the Eurofins Panlabs Safety Screen; conditions: Compound concentration 10.0 uM
[10] = molecular target: Histamine H3 receptor (Homo sapiens, UniProt Q9Y5N1); test: GPCRScan assay: inhibition of H3; set-up: radioligand conc. used [nm] 0.5 – 1.0, parental cells HEK Flp-In
[11] = molecular target: D(1A) dopamine receptor (Homo sapiens) (UniProt P21728); conditions: Compound concentration 10.0 uM
[12] = molecular target: Alpha-1A adrenergic receptor (Rattus norvegicus) (UniProt P43140); test: Inhibition of Adrenergic alpha1A at 10.0 µM in the Eurofins Panlabs Safety Screen; conditions: Compound concentration 10.0 uM
[13] = molecular target: Adenosine receptor A1 (Homo sapiens) (UniProt P30542); test: Inhibition of Adenosine A1 at 10.0 µM in the Eurofins Panlabs Safety Screen; conditions: Compound concentration 10.0 uM
[14] = molecular target: Interferon-induced, double-stranded RNA-activated protein kinase (Homo sapiens) (UniProt P19525); test: Inhibition of PKR(h) at 10.0 µM in the Eurofins Kinase panel; conditions: Compound concentration 10.0 uM
[15] = molecular target: Sigma non-opioid intracellular receptor 1 (Homo sapiens) (UniProt Q99720); conditions: Compound concentration 10.0 uM
[16] = molecular target: Tyrosine-protein kinase SYK (Homo sapiens) (UniProt P43405); test: Inhibition of Syk(h) at 10.0 µM in the Eurofins Kinase panel; conditions: Compound concentration 10.0 uM
[17] = molecular target: Motilin receptor (Homo sapiens) (UniProt O43193); test: Inhibition of Motilin at 10.0 µM in the Eurofins Panlabs Safety Screen; conditions: Compound concentration 10.0 uM
[18] = molecular target: Progesterone receptor (Homo sapiens) (UniProt P06401); test: Inhibition of Progesterone PR-B at 10.0 µM in the Eurofins Panlabs Safety Screen; conditions: Compound concentration 10.0 uM
[19] = molecular target: T3, Alpha-2A adrenergic receptor (Homo sapiens) (UniProt P08913); conditions: Compound concentration 10.0 uM
T3 sequence (whole entry): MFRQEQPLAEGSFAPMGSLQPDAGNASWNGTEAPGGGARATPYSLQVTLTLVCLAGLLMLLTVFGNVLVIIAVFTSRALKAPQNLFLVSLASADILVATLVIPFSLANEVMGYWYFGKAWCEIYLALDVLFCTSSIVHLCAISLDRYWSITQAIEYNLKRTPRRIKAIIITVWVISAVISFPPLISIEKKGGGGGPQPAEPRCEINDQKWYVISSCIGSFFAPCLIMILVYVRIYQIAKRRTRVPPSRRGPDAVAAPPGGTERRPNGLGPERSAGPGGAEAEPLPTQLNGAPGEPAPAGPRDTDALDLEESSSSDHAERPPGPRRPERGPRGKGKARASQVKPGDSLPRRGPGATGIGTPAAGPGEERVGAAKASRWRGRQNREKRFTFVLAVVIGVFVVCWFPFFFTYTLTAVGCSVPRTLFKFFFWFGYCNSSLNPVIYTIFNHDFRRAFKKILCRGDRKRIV

[20] = molecular target: GABA-A receptor; anion channel (Rattus norvegicus) (UniProt O09028+P15431+P18506+P18508+P19969+P20236+P23574+P23576+P28471+P28473+P30191+P62813+P63079+P63138+Q91ZM7+Q9ES14); conditions: Compound concentration 10.0 uM
[21] = molecular target: Dual specificity protein kinase CLK4 (Homo sapiens) (UniProt Q9HAZ1); test: Inhibition of CLK4(h) at 10.0 µM in the Eurofins Kinase panel; conditions: Compound concentration 10.0 uM
[22] = molecular target: Ribosomal protein S6 kinase beta-1 (Homo sapiens) (UniProt P23443); test: Inhibition of p70S6K(h) at 10.0 µM in the Eurofins Kinase panel; conditions: Compound concentration 10.0 uM
[23] = molecular target: T4, Muscarinic acetylcholine receptor M1 (Homo sapiens) (UniProt P11229); conditions: Compound concentration 10.0 uM
T4 sequence (whole entry): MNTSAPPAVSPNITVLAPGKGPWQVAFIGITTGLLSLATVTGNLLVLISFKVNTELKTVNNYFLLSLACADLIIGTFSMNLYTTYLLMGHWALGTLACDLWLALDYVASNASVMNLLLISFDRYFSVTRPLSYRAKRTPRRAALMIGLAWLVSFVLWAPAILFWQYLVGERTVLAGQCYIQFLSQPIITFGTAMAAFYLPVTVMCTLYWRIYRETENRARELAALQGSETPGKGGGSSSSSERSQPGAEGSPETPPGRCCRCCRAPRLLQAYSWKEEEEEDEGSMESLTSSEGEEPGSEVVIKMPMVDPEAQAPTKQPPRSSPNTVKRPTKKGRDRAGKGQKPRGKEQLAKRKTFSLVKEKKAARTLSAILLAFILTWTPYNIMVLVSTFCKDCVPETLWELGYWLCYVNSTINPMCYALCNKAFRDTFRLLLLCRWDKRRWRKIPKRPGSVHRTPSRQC

Chain of Histamine H3 receptor (Q9Y5N1 whole entry): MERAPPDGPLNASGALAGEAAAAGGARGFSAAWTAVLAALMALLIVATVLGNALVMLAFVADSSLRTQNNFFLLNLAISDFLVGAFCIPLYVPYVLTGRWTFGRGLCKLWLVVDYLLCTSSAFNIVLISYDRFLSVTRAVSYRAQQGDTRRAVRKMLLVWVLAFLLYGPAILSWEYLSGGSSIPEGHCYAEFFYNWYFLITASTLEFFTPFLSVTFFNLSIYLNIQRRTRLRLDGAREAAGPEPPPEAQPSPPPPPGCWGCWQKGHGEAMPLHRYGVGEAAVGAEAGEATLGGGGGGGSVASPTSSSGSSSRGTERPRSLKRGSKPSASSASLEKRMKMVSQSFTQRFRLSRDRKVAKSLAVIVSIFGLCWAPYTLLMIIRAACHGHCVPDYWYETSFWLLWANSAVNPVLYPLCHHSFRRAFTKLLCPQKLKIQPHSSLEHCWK
Chain of Sigma intracellular receptor 2 (Q5BJF2 whole entry): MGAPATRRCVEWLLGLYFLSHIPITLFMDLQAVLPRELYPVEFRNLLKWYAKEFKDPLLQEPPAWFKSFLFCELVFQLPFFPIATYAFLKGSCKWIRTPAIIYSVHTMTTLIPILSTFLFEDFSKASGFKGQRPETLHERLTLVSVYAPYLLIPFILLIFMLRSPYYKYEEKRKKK
Chain of Sigma non-opioid intracellular receptor 1 (Homo sapiens) (Q99720 whole entry): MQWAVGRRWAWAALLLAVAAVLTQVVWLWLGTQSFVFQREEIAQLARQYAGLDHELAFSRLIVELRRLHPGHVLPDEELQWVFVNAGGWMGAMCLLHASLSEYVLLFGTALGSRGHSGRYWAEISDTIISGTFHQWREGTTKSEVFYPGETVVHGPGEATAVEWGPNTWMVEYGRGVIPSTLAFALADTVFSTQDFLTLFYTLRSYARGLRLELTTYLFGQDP
T1 sequence (P50579 whole entry): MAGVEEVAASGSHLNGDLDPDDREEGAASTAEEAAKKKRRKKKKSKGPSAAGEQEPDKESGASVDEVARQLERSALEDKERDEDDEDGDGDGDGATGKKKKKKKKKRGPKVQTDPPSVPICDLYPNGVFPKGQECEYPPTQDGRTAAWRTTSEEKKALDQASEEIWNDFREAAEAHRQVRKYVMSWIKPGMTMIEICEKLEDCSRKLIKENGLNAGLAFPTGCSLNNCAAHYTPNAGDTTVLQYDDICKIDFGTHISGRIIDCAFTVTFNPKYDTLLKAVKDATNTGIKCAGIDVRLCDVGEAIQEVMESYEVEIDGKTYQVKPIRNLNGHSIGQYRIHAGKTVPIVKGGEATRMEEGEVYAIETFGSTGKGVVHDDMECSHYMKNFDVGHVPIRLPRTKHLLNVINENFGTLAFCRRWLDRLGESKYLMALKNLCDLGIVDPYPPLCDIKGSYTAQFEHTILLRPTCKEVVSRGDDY
Chain of D(1A) dopamine receptor (Homo sapiens) (P21728 whole entry): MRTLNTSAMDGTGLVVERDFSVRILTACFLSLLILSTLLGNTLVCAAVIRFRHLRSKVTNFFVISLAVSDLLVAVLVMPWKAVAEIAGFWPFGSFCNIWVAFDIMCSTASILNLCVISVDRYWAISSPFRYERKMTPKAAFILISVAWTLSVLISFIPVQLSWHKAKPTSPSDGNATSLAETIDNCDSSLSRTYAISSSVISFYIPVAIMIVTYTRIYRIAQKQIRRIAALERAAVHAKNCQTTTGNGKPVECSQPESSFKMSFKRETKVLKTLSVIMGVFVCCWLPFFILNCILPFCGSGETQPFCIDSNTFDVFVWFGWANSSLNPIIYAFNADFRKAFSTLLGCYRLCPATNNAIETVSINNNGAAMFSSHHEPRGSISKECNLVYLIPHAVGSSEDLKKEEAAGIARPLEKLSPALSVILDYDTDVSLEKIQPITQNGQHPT
Chain of Progesterone receptor (Homo sapiens) (P06401 whole entry): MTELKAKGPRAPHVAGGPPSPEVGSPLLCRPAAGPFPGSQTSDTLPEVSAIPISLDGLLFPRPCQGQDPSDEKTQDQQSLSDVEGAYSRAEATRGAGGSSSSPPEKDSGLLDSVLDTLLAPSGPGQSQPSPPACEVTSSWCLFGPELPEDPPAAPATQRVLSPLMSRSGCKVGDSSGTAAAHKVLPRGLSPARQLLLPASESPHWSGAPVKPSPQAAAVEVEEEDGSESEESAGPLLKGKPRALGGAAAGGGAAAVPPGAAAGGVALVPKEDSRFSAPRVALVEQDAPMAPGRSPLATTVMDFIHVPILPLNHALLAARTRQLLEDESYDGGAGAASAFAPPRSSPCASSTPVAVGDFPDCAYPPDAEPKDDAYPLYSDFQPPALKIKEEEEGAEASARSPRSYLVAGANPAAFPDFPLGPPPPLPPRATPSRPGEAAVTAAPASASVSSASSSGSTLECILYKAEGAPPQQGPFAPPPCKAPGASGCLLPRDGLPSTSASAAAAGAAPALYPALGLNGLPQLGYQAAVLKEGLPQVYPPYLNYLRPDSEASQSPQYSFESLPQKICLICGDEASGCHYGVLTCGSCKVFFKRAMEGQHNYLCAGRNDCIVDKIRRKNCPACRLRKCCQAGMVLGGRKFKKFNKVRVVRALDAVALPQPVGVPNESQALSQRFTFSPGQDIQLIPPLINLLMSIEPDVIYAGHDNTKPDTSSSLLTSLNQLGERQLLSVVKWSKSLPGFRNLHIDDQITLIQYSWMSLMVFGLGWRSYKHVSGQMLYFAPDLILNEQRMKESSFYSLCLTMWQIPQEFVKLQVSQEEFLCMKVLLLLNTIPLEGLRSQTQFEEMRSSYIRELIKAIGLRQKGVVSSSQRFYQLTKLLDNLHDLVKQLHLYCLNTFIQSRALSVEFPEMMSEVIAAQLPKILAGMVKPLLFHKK
Chain of Motilin receptor (Homo sapiens) (O43193 whole entry): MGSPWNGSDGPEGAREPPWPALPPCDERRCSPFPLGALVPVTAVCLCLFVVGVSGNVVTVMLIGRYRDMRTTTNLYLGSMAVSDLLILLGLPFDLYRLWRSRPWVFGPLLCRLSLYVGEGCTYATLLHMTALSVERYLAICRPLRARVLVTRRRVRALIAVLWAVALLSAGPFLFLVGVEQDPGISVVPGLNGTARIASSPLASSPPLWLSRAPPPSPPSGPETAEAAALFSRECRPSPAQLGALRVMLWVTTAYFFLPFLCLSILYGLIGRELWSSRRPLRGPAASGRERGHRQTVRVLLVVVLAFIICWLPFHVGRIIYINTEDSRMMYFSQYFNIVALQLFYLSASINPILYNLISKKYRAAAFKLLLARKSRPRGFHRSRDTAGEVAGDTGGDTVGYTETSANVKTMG
Chain of Glutamate receptor 2 (Homo sapiens) (P42262 whole entry): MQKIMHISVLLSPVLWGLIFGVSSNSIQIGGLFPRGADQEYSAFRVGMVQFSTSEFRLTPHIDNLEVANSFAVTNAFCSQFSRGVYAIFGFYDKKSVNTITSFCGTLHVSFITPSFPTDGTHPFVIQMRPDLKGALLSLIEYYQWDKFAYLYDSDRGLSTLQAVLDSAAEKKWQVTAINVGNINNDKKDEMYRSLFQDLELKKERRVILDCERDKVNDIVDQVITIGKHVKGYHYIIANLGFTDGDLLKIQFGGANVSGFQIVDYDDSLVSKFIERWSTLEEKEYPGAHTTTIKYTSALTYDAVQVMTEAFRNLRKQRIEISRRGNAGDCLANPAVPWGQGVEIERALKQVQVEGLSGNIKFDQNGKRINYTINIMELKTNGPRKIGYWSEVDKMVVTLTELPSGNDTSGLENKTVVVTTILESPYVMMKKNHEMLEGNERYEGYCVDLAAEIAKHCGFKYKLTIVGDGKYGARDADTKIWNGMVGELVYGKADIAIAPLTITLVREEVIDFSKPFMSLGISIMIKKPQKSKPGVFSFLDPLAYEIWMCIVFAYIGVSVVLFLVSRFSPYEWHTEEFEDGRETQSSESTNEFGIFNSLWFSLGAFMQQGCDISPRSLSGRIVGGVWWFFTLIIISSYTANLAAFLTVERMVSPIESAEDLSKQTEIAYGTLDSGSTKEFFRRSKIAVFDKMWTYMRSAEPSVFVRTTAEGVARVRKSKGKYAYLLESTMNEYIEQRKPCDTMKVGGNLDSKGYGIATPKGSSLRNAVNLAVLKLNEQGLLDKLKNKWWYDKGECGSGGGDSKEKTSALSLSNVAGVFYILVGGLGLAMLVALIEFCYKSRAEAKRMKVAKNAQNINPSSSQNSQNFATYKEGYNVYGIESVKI
Chain of Adenosine receptor A1 (Homo sapiens) (P30542 whole entry): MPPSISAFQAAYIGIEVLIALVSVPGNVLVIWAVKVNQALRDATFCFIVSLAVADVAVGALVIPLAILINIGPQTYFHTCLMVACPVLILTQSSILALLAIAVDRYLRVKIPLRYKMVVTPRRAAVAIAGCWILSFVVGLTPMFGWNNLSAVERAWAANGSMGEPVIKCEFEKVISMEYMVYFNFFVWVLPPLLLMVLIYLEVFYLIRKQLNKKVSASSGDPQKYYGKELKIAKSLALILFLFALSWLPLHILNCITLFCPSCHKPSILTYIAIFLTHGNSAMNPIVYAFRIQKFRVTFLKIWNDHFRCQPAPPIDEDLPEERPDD
Chain of Adenosine receptor A2a (Homo sapiens) (P29274 whole entry): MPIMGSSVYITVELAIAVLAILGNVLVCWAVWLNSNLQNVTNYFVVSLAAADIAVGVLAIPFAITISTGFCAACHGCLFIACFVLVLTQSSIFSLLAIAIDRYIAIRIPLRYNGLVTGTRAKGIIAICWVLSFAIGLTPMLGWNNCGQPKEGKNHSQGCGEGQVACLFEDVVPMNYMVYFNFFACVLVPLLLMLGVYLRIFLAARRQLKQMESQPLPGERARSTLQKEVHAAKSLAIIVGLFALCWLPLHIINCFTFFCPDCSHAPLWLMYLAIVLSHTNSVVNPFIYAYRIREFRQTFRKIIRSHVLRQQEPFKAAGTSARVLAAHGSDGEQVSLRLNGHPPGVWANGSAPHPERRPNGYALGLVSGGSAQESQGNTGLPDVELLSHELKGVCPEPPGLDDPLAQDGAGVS

| Structure (SMILES) | IC50 [1] | inhibition [2] | inhibition [3] | inhibition [4] | inhibition [5] | DC50 [6] | inhibition [7] | inhibition [8] | inhibition [9] | Ki ([10]; read-out: Ki) | Ki ([10]; read-out: pKi (converted)) | inhibition [11] | inhibition [12] | inhibition [13] | inhibition [15] | inhibition [16] | inhibition [17] | inhibition [18] | inhibition [19] | inhibition [20] | further results |
| --- | --- | --- | --- | --- | --- | --- | --- | --- | --- | --- | --- | --- | --- | --- | --- | --- | --- | --- | --- | --- | --- |
| O=C1NCCCC1N1Cc2cc(C3CCN(C(=O)CCCCCN4CCC(c5ccc(Oc6nn7cnnc7c7c6CCCC7)cc5)CC4)CC3)ccc2C1=O (stereo not given) | 5.7 nM | 44% | 6% | 76.4% | 6% | > 100 nM (not active) | 3% | 17% | 15% | 73.2 nM | 72.4 nM | 8.56% | 21% | 3% | 28.4% | 20.4% | 10% | 19% | 29.3% | 44.6% | inhibition [14]: 10.3%; inhibition [21]: 10.8%; inhibition [22]: 10.2%; inhibition [23]: 60.4% |
| O=C1CCC(N2Cc3cc(C4CCN(C(=O)CCCCCN5CCC(c6ccc(Oc7nn8cnnc8c8c7CCCC8)cc6)CC5)CC4)ccc3C2=O)C(=O)N1 (stereo not given) | 5.8 nM (active) | 40% | 25% | 75.9% | 6% | 0.2 nM (active) | 0% | 13% | 28% | 72.8 nM | 70.8 nM | 5.21% | 32% | 7% | 28.9% | 25% | 6% | 24% | 33.1% | 36.6% | inhibition [23]: 71.3% |
